Test results: patent publication US8158657B2, “Heterocycles substituted pyridine derivatives and antifungal agent containing thereof” (Eisai R&D Management Co., Ltd., priority 2005, dated 2012)
In brackets after ≈: the same amount, converted by molar mass. Where two headings read alike, the source gives them in different places.

What was measured:
[1] = test system: C. albicans CAF2-1 strain; assay: Anti-Candida activity, MIC measurement; type: cell-based; settings: CAF21STRAIN, read-out: Anti-Candida Activity (minimum inhibitory concentration, MIC)
Method in brief: (§1)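 C. albicans CAF2-1 was grown 48 h at 30° C. in SDB and diluted in RPMI1640 to 1.2×10^3 cells/mL. Frozen A. fumigatus Tsukuba was diluted to 4.5×10^3 cells/mL. Compounds, two-fold serially diluted in DMSO from 2.5 mg/mL, were cultured aerobically with fungi for 42-48 h at 35° C.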

[2] = test system: A. fumigatus Tsukuba strain; assay: Anti-Aspergillus activity, MIC measurement; type: cell-based; settings: RPMI1640, 42-48 hours at 35° C., visual inspection, read-out: Anti-Aspergillus Activity (minimum inhibitory concentration, MIC)
Method in brief: as §1

[3] = test system: C. albicans E81022 strain; assay: Experimental systemic candidal infection model in mice; type: in vivo; settings: peroral, 3 times every 4 hours, female ICR mice, observed until 14 days after infection
Procedure: A standing culture of C. albicans E81022 strain was carried out for 48 hours at 30° C. in sabouraud dextrose agar medium (SDA), the recovered fungal cells were suspended in sterilized physiological saline. By counting the fungal number on cytometry plate, the suspension was diluted to 2×10^7 cells/mL with sterilized physiological saline to serve fungal inoculum.
The fungal inoculum was used in the amounts of 0.2 mL to inoculate 4.5 to 5.5 week-old female ICR mice in the tail vein (4×10^6 cells/mouse).
From 0.5 to 1 hour after fungal inoculation, 0.2 mL of agent solution (dissolved or suspended in sterilized physiological saline containing 6.5% dimethyl sulfoxide and 3.5% Tween 80) was administered into the stomach using a peroral probe, 3 times every 4 hours. The agent concentration was 2.5 mg/kg or 10 mg/kg, and the number of animals in one group was 5 animals.
The protective effect was determined by observing life/death until 14 days after infection and calculating the mean survival days.

[4] = C. albicans CAF2-1, RPMI1640, 42-48 hours at 35° C., visual inspection

Nc1ncccc1-c1cc(Cc2ccc(OCc3ccccc3)cc2)no1 [Example 1, 3-(3-(4-Benzyloxy-benzyl)-isoxazol-5-yl)-pyridin-2-ylamine]
MIC [1, 4]: 0.2 µg/mL (≈ 0.56 µM) | MIC [2]: 0.2 µg/mL (≈ 0.56 µM) | Mean Survival Days ([3]; 2.5 mg/kg): 12.2 days | Mean Survival Days ([3]; 10 mg/kg): 14.0 days

Nc1ncccc1-c1cc(Cc2ccc(COc3ccccn3)cc2)no1 [Example 2, 3-(3-(4-(Pyridin-2-yloxymethyl)-benzyl)-isoxazol-5-yl)-pyridin-2-ylamine]
MIC [1, 4]: 0.05 µg/mL (≈ 0.14 µM) | MIC [2]: 0.2 µg/mL (≈ 0.558 µM) | Mean Survival Days ([3]; 2.5 mg/kg): 13.2 days | Mean Survival Days ([3]; 10 mg/kg): 14.0 days

Nc1ncccc1-c1cc(Cc2ccc(OCc3ccccn3)cc2)no1 [Example 9, 3-(3-(4-(Pyridin-2-ylmethoxy)-benzyl)-isoxazol-5-yl)-pyridin-2-ylamine]
MIC [1, 4]: 0.2 µg/mL (≈ 0.558 µM) | MIC [2]: 0.39 µg/mL (≈ 1.09 µM) | Mean Survival Days ([3]; 2.5 mg/kg): 12.8 days | Mean Survival Days ([3]; 10 mg/kg): 14.0 days

Cc1ccnc(COc2ccc(Cc3cc(-c4cccnc4N)on3)cc2)c1 [Example 11, 3-(3-(4-(4-Methyl-pyridin-2-ylmethoxy)-benzyl)-isoxazol-5-yl)-pyridin-2-ylamine]
MIC [1, 4]: 0.1 µg/mL (≈ 0.269 µM) | MIC [2]: 0.39 µg/mL (≈ 1.05 µM) | Mean Survival Days ([3]; 2.5 mg/kg): 8.2 days | Mean Survival Days ([3]; 10 mg/kg): 13.6 days

Nc1ncccc1-c1cc(Cc2ccc(OCc3ccccc3)nc2)no1 [Example 12, 3-(3-(6-Benzyloxy-pyridin-3-ylmethyl)-isoxazol-5-yl)-pyridin-2-ylamine]
MIC [1, 4]: 0.1 µg/mL (≈ 0.279 µM) | MIC [2]: 0.1 µg/mL (≈ 0.279 µM) | Mean Survival Days ([3]; 2.5 mg/kg): 10.8 days | Mean Survival Days ([3]; 10 mg/kg): 14.0 days

Nc1ccc(-c2cc(Cc3ccc(OCc4ccccc4)cc3)no2)c(N)n1 [Example 13, 3-(3-(4-Benzyloxy-benzyl)-isoxazol-5-yl)-pyridin-2,6-diamine]
MIC [1, 4]: 0.2 µg/mL (≈ 0.537 µM) | MIC [2]: 0.1 µg/mL (≈ 0.269 µM) | Mean Survival Days ([3]; 2.5 mg/kg): 13.8 days | Mean Survival Days ([3]; 10 mg/kg): 14.0 days

Nc1ccc(-c2cc(Cc3ccc(COc4ccccn4)cc3)no2)c(N)n1 [Example 14]
MIC [1, 4]: 0.39 µg/mL (≈ 1.04 µM) | MIC [2]: 0.39 µg/mL (≈ 1.04 µM) | Mean Survival Days ([3]; 2.5 mg/kg): 13.4 days | Mean Survival Days ([3]; 10 mg/kg): 14.0 days

Cc1cccc(OCc2ccc(Cc3cc(-c4ccc(N)nc4N)on3)cc2)n1 [Example 15, 3-(3-(4-(6-Methyl-pyridin-2-yloxymethyl)-benzyl)-isoxazol-5-yl)-pyridin-2,6-diamine]
MIC [1, 4]: 0.2 µg/mL (≈ 0.516 µM) | MIC [2]: 0.39 µg/mL (≈ 1.01 µM) | Mean Survival Days ([3]; 2.5 mg/kg): 10.8 days | Mean Survival Days ([3]; 10 mg/kg): 12.6 days

CCCCOCc1ccc(Cc2cc(-c3ccc(N)nc3N)on2)cc1 [Example 16, 3-(3-(4-Butoxymethyl-benzyl)-isoxazol-5-yl)-pyridin-2,6-diamine]
MIC [1, 4]: 0.39 µg/mL (≈ 1.11 µM) | MIC [2]: 0.39 µg/mL (≈ 1.11 µM) | Mean Survival Days ([3]; 2.5 mg/kg): 4.8 days | Mean Survival Days ([3]; 10 mg/kg): 12.8 days

Nc1ccc(-c2cc(Cc3ccc(Oc4ccccc4)cc3)no2)c(N)n1 [Example 17, 3-(3-(4-Phenoxy-benzyl)-isoxazol-5-yl)-pyridin-2,6-diamine]
MIC [1, 4]: 0.78 µg/mL (≈ 2.18 µM) | MIC [2]: 0.2 µg/mL (≈ 0.558 µM) | Mean Survival Days ([3]; 2.5 mg/kg): 8.2 days | Mean Survival Days ([3]; 10 mg/kg): 13.0 days

Cc1ccnc(COc2ccc(Cc3cc(-c4ccc(N)nc4N)on3)cc2)c1 [Example 24, 3-(3-(4-(4-Methyl-pyridin-2-ylmethoxy)-benzyl)-isoxazol-5-yl)-pyridin-2,6-diamine]
MIC [1, 4]: 0.39 µg/mL (≈ 1.01 µM) | MIC [2]: 0.78 µg/mL (≈ 2.01 µM) | Mean Survival Days ([3]; 2.5 mg/kg): 7.4 days | Mean Survival Days ([3]; 10 mg/kg): 14.0 days

Nc1ccc(-c2cc(Cc3ccc(OCc4ccccc4)nc3)no2)c(N)n1 [Example 25, 3-(3-(6-benzyloxy-pyridin-3-ylmethyl)-isoxazol-5-yl)-pyridine-2,6-diamine]
MIC [1, 4]: 0.2 µg/mL (≈ 0.536 µM) | MIC [2]: 0.2 µg/mL (≈ 0.536 µM) | Mean Survival Days ([3]; 2.5 mg/kg): 12.2 days

COCc1ccc(-c2cc(Cc3ccc(COc4ccccn4)cc3)no2)c(N)n1 [Example 27]
MIC [1, 4]: 0.2 µg/mL (≈ 0.497 µM) | MIC [2]: 0.39 µg/mL (≈ 0.969 µM) | Mean Survival Days ([3]; 2.5 mg/kg): 3.0 days | Mean Survival Days ([3]; 10 mg/kg): 10.0 days

Nc1ncccc1-c1cc(Cc2ccc(OCc3ccccc3)cc2)on1 [Example 29, 3-(5-(4-Benzyloxy-benzyl)-isoxazol-3-yl)-pyridin-2-ylamine]
MIC [1, 4]: 0.39 µg/mL (≈ 1.09 µM) | MIC [2]: 0.2 µg/mL (≈ 0.56 µM) | Mean Survival Days ([3]; 10 mg/kg): 11.4 days

Nc1ncccc1-c1cc(Cc2ccc(COc3ccccn3)cc2)on1 [Example 30, 3-(5-(4-(Pyridin-2-yloxymethyl)-benzyl)-isoxazol-3-yl)-pyridin-2-ylamine]
MIC [1, 4]: 0.1 µg/mL (≈ 0.279 µM) | MIC [2]: 0.2 µg/mL (≈ 0.558 µM) | Mean Survival Days ([3]; 2.5 mg/kg): 13.0 days

N#Cc1cccc(COc2ccc(Cc3cc(-c4ccc(N)nc4N)on3)cc2)c1 [Example 212, 3-(4-(5-(2,6-Diamino-pyridin-3-yl)-isoxazol-3-ylmethyl)-phenoxymethyl)benzonitrile]
MIC [1, 4]: 0.78 µg/mL (≈ 1.96 µM) | MIC [2]: 0.78 µg/mL (≈ 1.96 µM)

COC(=O)c1cccc(COc2ccc(Cc3cc(-c4ccc(N)nc4N)on3)cc2)c1 [Example 213, 3-(4-(5-(2,6-Diamino-pyridin-3-yl)-isoxazol-3-ylmethyl)-phenoxymethyl)benzoic acid methyl ester]
MIC [1, 4]: 6.25 µg/mL (≈ 14.5 µM) | MIC [2]: 1.56 µg/mL (≈ 3.62 µM)

C#Cc1cccc(COc2ccc(Cc3cc(-c4ccc(N)nc4N)on3)cc2)c1 [Example 214, 3-(3-(4-(3-Ethynyl-benzyloxy)-benzyl)-isoxazol-5-yl)-pyridin-2,6-diamine]
MIC [1, 4]: 0.39 µg/mL (≈ 0.984 µM) | MIC [2]: 0.39 µg/mL (≈ 0.984 µM)

Nc1ccc(-c2cc(Cc3ccc(Oc4cncc(Cl)n4)cc3)no2)c(N)n1 [Example 215, 3-(3-(4-(6-Chloro-pyrazin-2-yloxy)-benzyl)-isoxazol-5-yl)-pyridin-2,6-diamine]
MIC [1, 4]: 0.39 µg/mL (≈ 0.988 µM) | MIC [2]: 0.78 µg/mL (≈ 1.98 µM)

Nc1ccc(-c2cc(Cc3ccc(SCc4ccccc4)cc3)no2)c(N)n1 [Example 216, 3-(3-(4-Benzylsulfanyl-benzyl)-isoxazol-5-yl)-pyridin-2,6-diamine]
MIC [1, 4]: 0.39 µg/mL (≈ 1 µM) | MIC [2]: 0.39 µg/mL (≈ 1 µM)

Nc1ccc(-c2cc(Cc3ccc(CSc4ccccc4)cc3)no2)c(N)n1 [Example 217, 3-(3-(4-Phenylsulfanylmethyl-benzyl)-isoxazol-5-yl)-pyridin-2,6-diamine]
MIC [1, 4]: 0.1 µg/mL (≈ 0.257 µM) | MIC [2]: 0.2 µg/mL (≈ 0.515 µM)

CC(C)=CCOc1ccc(Cc2cc(-c3ccc(N)nc3N)on2)cc1 [Example 218, 3-(3-(4-(3-Methyl-2-but-2-enyloxy)-benzyl)-isoxazol-5-yl)-pyridin-2,6-diamine]
MIC [1]: 0.2 µg/mL (≈ 0.571 µM) | MIC [2]: 0.1 µg/mL (≈ 0.285 µM)

C#CCOc1ccc(Cc2cc(-c3ccc(N)nc3N)on2)cc1 [Example 219, 3-(3-(4-Prop-2-ynyloxy-benzyl)-isoxazol-5-yl)-pyridine-2,6-diamine]
MIC [1, 4]: 3.13 µg/mL (≈ 9.77 µM) | MIC [2]: 3.13 µg/mL (≈ 9.77 µM)

Nc1ccc(-c2cc(Cc3ccc(Br)cc3)no2)c(N)n1 [Example 220, 3-(3-(4-Bromo-benzyl)-isoxazol-5-yl)-pyridine-2,6-diamine]
MIC [1, 4]: 6.25 µg/mL (≈ 18.1 µM) | MIC [2]: 6.25 µg/mL (≈ 18.1 µM)

Nc1ccc(-c2cc(Cc3ccc(Cc4ccc(F)cc4)o3)no2)c(N)n1 [Example 221, 3-(3-(5-(4-Fluoro-benzyl)-furan-2-ylmethyl)-isoxazol-5-yl)-pyridin-2,6-diamine]
MIC [1, 4]: 1.56 µg/mL (≈ 4.28 µM) | MIC [2]: 0.39 µg/mL (≈ 1.07 µM)

Nc1ccc(-c2cc(Cc3ccc(Oc4ccccn4)cc3)no2)c(N)n1 [Example 222, 3-(3-(4-(Pyridin-2-yloxy)-benzyl)-isoxazol-5-yl)-pyridin-2,6-diamine]
MIC [1, 4]: 0.39 µg/mL (≈ 1.09 µM) | MIC [2]: 0.39 µg/mL (≈ 1.09 µM)

Nc1ccc(-c2cc(Cc3ccc(Cc4ccccc4)nc3)no2)c(N)n1 [Example 223, 3-(3-(6-Benzyl-pyridin-3-ylmethyl)-isoxazol-5-yl)-pyridin-2,6-diamine]
MIC [1, 4]: 0.39 µg/mL (≈ 1.09 µM) | MIC [2]: 0.39 µg/mL (≈ 1.09 µM)

CNc1ccc(-c2cc(Cc3ccc(OCc4ccccc4)nc3)no2)c(N)n1 [Example 224, 3-(3-(6-Benzyloxy-pyridin-3-ylmethyl)-isoxazol-5-yl)-N^6-methyl-pyridin-2,6-diamine]
MIC [1, 4]: 0.39 µg/mL (≈ 1.01 µM) | MIC [2]: 0.2 µg/mL (≈ 0.516 µM)

Nc1nc(NCCO)ccc1-c1cc(Cc2ccc(OCc3ccccc3)nc2)no1 [Example 225, 2-(6-Amino-5-(3-(6-benzyloxy-pyridin-3-ylmethyl)-isoxazol-5-yl)-pyridin-2-ylamino)-ethanol]
MIC [1, 4]: 0.78 µg/mL (≈ 1.87 µM) | MIC [2]: 3.13 µg/mL (≈ 7.5 µM)

COCC(=O)Nc1ccc(-c2cc(Cc3ccc(OCc4ccccc4)nc3)no2)c(N)n1 [Example 226, N-(6-Amino-5-(3-(6-benzyloxy-pyridin-3-ylmethyl)-isoxazol-5-yl)-pyridin-2-yl)-2-methoxy-acetamide]
MIC [1, 4]: 0.39 µg/mL (≈ 0.875 µM) | MIC [2]: 0.39 µg/mL (≈ 0.875 µM)

CCOC(=O)CNc1ccc(-c2cc(Cc3ccc(OCc4ccccc4)nc3)no2)c(N)n1 [Example 227, (6-Amino-5-(3-(6-benzyloxy-pyridin-3-ylmethyl)-isoxazol-5-yl)-pyridin-2-ylamino)-acetic acid ethyl ester]
MIC [1, 4]: 1.56 µg/mL (≈ 3.39 µM) | MIC [2]: 1.56 µg/mL (≈ 3.39 µM)

CN(C)c1ncccc1-c1cc(Cc2ccc(OCc3ccccc3)cc2)no1 [Example 228, (3-(3-(4-Benzyloxy-benzyl)-isoxazol-5-yl)-pyridin-2-yl)-dimethyl-amine]
MIC [1, 4]: 0.78 µg/mL (≈ 2.02 µM) | MIC [2]: 0.78 µg/mL (≈ 2.02 µM)
